Laboratory results as given in patent US11970521B2, “Neuroprotective beta amyloid core peptides and peptidomimetic derivatives” (priority 2016, dated 2024).
Where no end group is shown, it is not given here. [ ]: non-standard residue; d: D form.

What was measured:
[1] = test system: NG108-15 cells expressing α4β2-nAChRs; experiment: Cell stress (ROS) assay, α4β2-nAChR-transfected differentiated NG108-15 cells treated with Aβ1-42; format: cell-based, rodent; details: for Aβ1-42-induced ROS, co-treatment with stabilized peptides: daily 100 nM with 100 nM Aβ1-42, FIG. 9B, p<0.05 vs. Aβ1-42 alone
From the text: (§1) In Vitro Neuronal Models. The studies were, performed on the NG108-15 rodent hybrid neuroblastoma cell line and primary hippocampal neuron cultures. The cell line can be differentiated, yielding axonal neurites with presynaptic-like varicosities that have the ability to release acetylcholine via exocytosis in response to stimulation. […] The primary hippocampal neuron cultures provide a physiologically relevant model.
(§2) Neuroblestoma Clonal Cell Culture and Transfection. Rodent hybrid neuroblastoma NG108-15 cells were used as a model nerve cell system allowing reconstitution with defined target receptors for Aβ. The cells were cultured in Dulbecco's modified Eagle's medium (DMEM) containing 15% fetal bovine serum (FBS) and differentiated in the presence of reduced serum (1% FBS) and 1 mM dibutyryl cyclic AMP for 72 h, Expression vectors (pcDNA3.1) containing mouse sequences for α4 and β2 nAChR subunits (1:4 ratio respectively) were transiently transfected into the cells using FuGENE HD (ThernioFisher, catalog #PRE2311) for 48 h. Mock-transfected NG108-15 cells, exposed only to FuGENE HO and not plasmid DNA, were used as controls.
Cell Stress Assays. Cells were plated, differentiated and treated for 3 days poor to assay. Cell count and fluorescence intensity of reactive oxygen species (ROS)-positive cells were assessed as a means to measure cellular oxidative stress using an Image-IT® LIVE Green Reactive Oxygen Species Detection Kit. In brief, the cells were treated for three days for NG108-15 cultures end five or ten days for primary hippocampal neuronal cultures. The media was changed every day, thus replenishing with fresh Aβ every 24 h, unless otherwise noted. Thereafter, the cells were incubated with carboxy-H2DCFDA (component A) at 37° C. for 30 min. During the last 5 min of incubation, 2 μg/ml of HOECHST stain (component B) was added to assess, in parallel, the integrity of the cell nuclei. The cells were washed twice with HBS and visualized using an Olympus IX81 epifluorescence microscope at excitation/emission of 495) 529 nm (ROS) and 350/461 nm (HOECHST), respectively.

α4β2-nAChRs = target: T1, α4β2-nAChRs (Mus musculus, UniProt O70174+Q9ERK7); experiment: Ca2+ imaging (Fluo-4) in varicosities of NG108-15 cells expressing α4β2-nAChRs; format: cell-based; details: 100 nM; FIG. 13B
T1 construct: expressed in transfected cells; host or cells: differentiated NG108-15 rodent hybrid neuroblastoma cells, pcDNA3.1 vectors, transient transfection with FuGENE HD
Experimental: as §2
Ca^2+ Imaging Fluo-4, a Ca^2+ indicator dye, was loaded into cells on coverslips and visualization of [Ca^2+] was done via a Nikon PCM 2000 Cameleon AOTF confocal microscope. Each time-series was normalized to baseline fluorescence intensity at time zero (F/F0). After recording a baseline image series, each treatment was perfused over cells for 2.5 minutes or 15 minutes and quantification of relative fluorescence changes was analyzed through imageJ.

[2] = test system: NG108-15 cells expressing α4β2-nAChRs; experiment: Cell death (apoptosis) TUNEL assay, α4β2-nAChR-transfected NG108-15 cells; format: cell-based, rodent; details: nM co-treatment on day 1, 2 or 3 after start of daily Aβ1-42; FIG. 14A; p<0.0001
Experimental: as §2
Cell Death (Apoptosis) Assay. Cells were plated, differentiated and treated for either 3 or 4 days prior to assay. Apoptotic cells were detected as DNA fragmentation by Click-IT TUNEL Alexa fluor 488. In brief, the cells were treated for four days, exchanging media each day. After the fourth day of treatment, the cells were fixed with freshly prepared 4% paraformaldehyde in PBS at room temperature for 20 min and permeabilized with Triton X-100 (0.25% in PBS) for another 20 min. The cultures were then washed twice and incubated with 50 μL of terminal deoxynucleotidyi transferase reaction buffer (Component A) for 10 min at room temperature. […]

[3] = test system: mock-transfected NG108-15 cells; experiment: Cell stress (ROS) assay, mock-transfected NG108-15 cells (absent nAChRs) treated with μM Aβ1-42; format: cell-based, rodent; details: co-treatment with nM-μM concentrations and 1 μM Aβ1-42; FIG. 6A; p<0.0001
From the text: as §1, §2
Cell Stress Assays. […] Cell count and fluorescence intensity of reactive oxygen species (ROS)-positive cells were assessed as a means to measure cellular oxidative stress using an Image-IT® LIVE Green Reactive Oxygen Species Detection Kit. […]

[4] = test system: primary hippocampal neurons; experiment: Cell stress (ROS) assay in primary hippocampal neuron cultures; format: cell-based, mouse; details: 1 μM with 1 μM Aβ1-42, 5 or 10 days; p<0.0001
From the text: Hippocampal Neuron Culture. All animal procedures followed an tACUC-approved protocol in accordance with animal welfare guidelines, Hippocampal neuron cultures even prepared from neonatal mouse pups (0-2d old) of either gender (roughly equivalent numbers) obtained from established colonies of wild-type B6.SJL (background) mice. Following rapid decapitation, brains were removed into ice-cold Neurobasal A medium (NB) containing B-27 supplement, 5% fetal bovine serum and Gentamicin (serum NB). Hippocampi were then isolated under a stereomicroscope. The hippocampi were digested with papain (Worthington, catalog #35N16202) in Hanks with 10 mM cysteine at 37° C. for 15 mins. The preparations were washed by centrifugation in serum NB. The cells were dissociated using sequential trituration with polished Pasteur pipettes of decreasing diameter and collected by low-speed centrifugation. The dissociated cells were preplated in standard tissue culture dishes to remove adherent non-neuronal cells (glia; fibroblasts) for 10-15 mins. […]

[5] = test system: NG108-15 cells expressing α4β2-nAChRs; experiment: Cell survival (daily cell counts), NG108-15 cells with α4β2-nAChRs; format: cell-based, rodent; details: 100 nM co-treatment with 100 nM Aβ1-42; FIG. 10A; p<0.0001
Experimental: Neuroblestoma Clonal Cell Culture and Transfection. Rodent hybrid neuroblastoma NG108-15 cells were used as a model nerve cell system allowing reconstitution with defined target receptors for Aβ. […] Mock-transfected NG108-15 cells, exposed only to FuGENE HO and not plasmid DNA, were used as controls.
(§3) Cell Survival. Cell survival was determined by counting cells everyday for 7 or 10 days of treatment. For each condition, all cells in 5 random fields of view were counted and averaged. Percent cell death was calculated based on daily cell counts as a proportion of starting cell count numbers (i.e. day 0).

[6] = test system: mock-transfected NG108-15 cells; experiment: Cell death (apoptosis) TUNEL assay, NG108-15 cells without nAChRs; format: cell-based; details: nM-μM co-treatment over four days with 1 μM Aβ1-42; FIG. 14B; trend of greater reduction at μM
Experimental: as §2

[7] = test system: primary hippocampal neurons; experiment: Cell survival (cell counts), primary hippocampal neurons; format: cell-based, mouse; details: 1 μM with 1 μM Aβ1-42; FIG. 10B; p<0.0001
Experimental: as §3

T1 sequence (O70174 31-629): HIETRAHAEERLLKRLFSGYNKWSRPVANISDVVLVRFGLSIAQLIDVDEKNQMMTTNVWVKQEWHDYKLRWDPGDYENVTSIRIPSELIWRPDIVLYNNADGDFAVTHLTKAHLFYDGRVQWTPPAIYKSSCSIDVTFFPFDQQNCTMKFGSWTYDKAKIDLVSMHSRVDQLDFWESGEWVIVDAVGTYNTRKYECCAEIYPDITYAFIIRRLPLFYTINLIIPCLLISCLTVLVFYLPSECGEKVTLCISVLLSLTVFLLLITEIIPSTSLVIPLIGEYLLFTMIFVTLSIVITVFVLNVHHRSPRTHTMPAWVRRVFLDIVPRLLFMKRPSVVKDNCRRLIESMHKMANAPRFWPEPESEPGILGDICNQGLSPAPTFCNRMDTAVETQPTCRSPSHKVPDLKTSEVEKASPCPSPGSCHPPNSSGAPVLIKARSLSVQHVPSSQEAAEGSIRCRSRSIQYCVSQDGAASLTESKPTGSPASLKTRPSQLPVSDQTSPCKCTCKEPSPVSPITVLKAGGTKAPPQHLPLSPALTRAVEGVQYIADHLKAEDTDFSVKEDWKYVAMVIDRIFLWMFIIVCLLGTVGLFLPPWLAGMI
T1 sequence (Q9ERK7 26-501): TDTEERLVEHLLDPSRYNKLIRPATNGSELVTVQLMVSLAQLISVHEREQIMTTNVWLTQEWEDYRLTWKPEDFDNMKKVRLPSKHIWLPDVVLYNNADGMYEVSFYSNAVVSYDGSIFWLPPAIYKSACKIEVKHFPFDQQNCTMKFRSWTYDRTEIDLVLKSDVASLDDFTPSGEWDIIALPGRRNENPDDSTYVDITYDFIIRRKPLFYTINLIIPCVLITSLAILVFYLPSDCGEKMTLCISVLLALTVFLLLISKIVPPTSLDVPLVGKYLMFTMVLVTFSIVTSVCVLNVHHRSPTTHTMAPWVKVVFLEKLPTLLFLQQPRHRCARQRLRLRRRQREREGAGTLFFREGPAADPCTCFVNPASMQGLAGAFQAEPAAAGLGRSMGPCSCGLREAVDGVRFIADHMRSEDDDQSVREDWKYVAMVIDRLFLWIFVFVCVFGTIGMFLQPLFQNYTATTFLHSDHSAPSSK

Substance | Aβ1-42-induced ROS, co-treatment with stabilized peptides [1] | Average peak Ca2+ response relative to N-Aβcore (α4β2-nAChRs) | Aβ1-42-induced apoptosis (TUNEL staining) [2] | Aβ1-42-induced oxidative stress (ROS) in absence of nAChRs [3] | Aβ1-42-induced ROS in primary neurons, co-treatment [4] | Aβ1-42-induced cell death at 7 days, co-treatment [5] | Aβ1-42-induced ROS, co-treatment or post-treatment (rescue) ([1]; nM concentrations, co-treatment or rescue for 3-, 2- or 1-day, 100 nM Aβ1-42, FIG. 5A, p<0.0001) | Aβ1-42-induced DNA-fragmentation in absence of nAChRs [6] | Aβ1-42-induced cell death over 10-day treatments, co-treatment [7]
D-[Aβcore]: N-Aβcore converted from L-configuration to D-configuration for each amino acid ([dY][dE][dV][dH][dH][dQ]) | reduces ROS | retains activity |  |  |  |  |  |  | 
Tyrosine-Glutamate-Valine-Histidine-Histidine-Glutamine [N-Aβcore] |  |  | reduced apoptosis compared to Aβ1-42 alone | reduced this oxidative stress compared to Aβ1-42 alone | reduced the levels of ROS down to untreated (baseline) levels | able to fully protect against Aβ1-42-induced cell death | reduced Aβ1-42-induced ROS back to baseline levels | reduced DNA-fragmentation compared to Aβ1-42 alone | protected primary hippocampal neurons against β1-42-induced cell death
capped-N-Aβcore: N-Aβcore with N-terminus capped with an acetyl group and C-terminus with an amide group (Ac-YEVHHQ-NH2) | reduces ROS | retained its potent activity |  |  |  |  |  |  | 
Capped-D-[Aβcore]: D-enantiomer N-Aβcore with N-terminal acetylation and C-terminal amidation (Ac-[dY][dE][dV][dH][dH][dQ]-NH2; SMILES CC(=O)N[C@H](Cc1ccc(O)cc1)C(=O)N[C@H](CCC(=O)O)C(=O)N[C@@H](C(=O)N[C@H](Cc1c[nH]cn1)C(=O)N[C@H](Cc1c[nH]cn1)C(=O)N[C@H](CCC(N)=O)C(N)=O)C(C)C) | reduces ROS | retains activity |  |  |  |  |  |  | 
